Structures can show the parent of a compound that is named as a salt.
Tests used:
DNA-PK = DNA-PK (Homo sapiens (Human), UniProt P78527); assay: DNA-PK Enzyme-Linked Immunosorbent Assay (phosphorylation of GST-p53 (1-101) peptide); type: biochemical; conditions: ELISA
Summary of the method: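 Inhibition measured by 450 nm absorbance after HRP/TMB detection of phospho-Ser15 on immobilized GST-p53 (1-101). The kinase reaction used 0.1 μg/mL DNA-PK and 20 μM ATP, 1 h at 25 °C. Ten 3-fold compound dilutions, top final concentration 100 nM.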

ATM = ATM (Homo sapiens (Human), UniProt Q13315); assay: ATM in Cell Western Assay (pKAP1 in etoposide-treated MCF-7 cells); type: cell-based
ATM, sequence (Q13315 whole entry): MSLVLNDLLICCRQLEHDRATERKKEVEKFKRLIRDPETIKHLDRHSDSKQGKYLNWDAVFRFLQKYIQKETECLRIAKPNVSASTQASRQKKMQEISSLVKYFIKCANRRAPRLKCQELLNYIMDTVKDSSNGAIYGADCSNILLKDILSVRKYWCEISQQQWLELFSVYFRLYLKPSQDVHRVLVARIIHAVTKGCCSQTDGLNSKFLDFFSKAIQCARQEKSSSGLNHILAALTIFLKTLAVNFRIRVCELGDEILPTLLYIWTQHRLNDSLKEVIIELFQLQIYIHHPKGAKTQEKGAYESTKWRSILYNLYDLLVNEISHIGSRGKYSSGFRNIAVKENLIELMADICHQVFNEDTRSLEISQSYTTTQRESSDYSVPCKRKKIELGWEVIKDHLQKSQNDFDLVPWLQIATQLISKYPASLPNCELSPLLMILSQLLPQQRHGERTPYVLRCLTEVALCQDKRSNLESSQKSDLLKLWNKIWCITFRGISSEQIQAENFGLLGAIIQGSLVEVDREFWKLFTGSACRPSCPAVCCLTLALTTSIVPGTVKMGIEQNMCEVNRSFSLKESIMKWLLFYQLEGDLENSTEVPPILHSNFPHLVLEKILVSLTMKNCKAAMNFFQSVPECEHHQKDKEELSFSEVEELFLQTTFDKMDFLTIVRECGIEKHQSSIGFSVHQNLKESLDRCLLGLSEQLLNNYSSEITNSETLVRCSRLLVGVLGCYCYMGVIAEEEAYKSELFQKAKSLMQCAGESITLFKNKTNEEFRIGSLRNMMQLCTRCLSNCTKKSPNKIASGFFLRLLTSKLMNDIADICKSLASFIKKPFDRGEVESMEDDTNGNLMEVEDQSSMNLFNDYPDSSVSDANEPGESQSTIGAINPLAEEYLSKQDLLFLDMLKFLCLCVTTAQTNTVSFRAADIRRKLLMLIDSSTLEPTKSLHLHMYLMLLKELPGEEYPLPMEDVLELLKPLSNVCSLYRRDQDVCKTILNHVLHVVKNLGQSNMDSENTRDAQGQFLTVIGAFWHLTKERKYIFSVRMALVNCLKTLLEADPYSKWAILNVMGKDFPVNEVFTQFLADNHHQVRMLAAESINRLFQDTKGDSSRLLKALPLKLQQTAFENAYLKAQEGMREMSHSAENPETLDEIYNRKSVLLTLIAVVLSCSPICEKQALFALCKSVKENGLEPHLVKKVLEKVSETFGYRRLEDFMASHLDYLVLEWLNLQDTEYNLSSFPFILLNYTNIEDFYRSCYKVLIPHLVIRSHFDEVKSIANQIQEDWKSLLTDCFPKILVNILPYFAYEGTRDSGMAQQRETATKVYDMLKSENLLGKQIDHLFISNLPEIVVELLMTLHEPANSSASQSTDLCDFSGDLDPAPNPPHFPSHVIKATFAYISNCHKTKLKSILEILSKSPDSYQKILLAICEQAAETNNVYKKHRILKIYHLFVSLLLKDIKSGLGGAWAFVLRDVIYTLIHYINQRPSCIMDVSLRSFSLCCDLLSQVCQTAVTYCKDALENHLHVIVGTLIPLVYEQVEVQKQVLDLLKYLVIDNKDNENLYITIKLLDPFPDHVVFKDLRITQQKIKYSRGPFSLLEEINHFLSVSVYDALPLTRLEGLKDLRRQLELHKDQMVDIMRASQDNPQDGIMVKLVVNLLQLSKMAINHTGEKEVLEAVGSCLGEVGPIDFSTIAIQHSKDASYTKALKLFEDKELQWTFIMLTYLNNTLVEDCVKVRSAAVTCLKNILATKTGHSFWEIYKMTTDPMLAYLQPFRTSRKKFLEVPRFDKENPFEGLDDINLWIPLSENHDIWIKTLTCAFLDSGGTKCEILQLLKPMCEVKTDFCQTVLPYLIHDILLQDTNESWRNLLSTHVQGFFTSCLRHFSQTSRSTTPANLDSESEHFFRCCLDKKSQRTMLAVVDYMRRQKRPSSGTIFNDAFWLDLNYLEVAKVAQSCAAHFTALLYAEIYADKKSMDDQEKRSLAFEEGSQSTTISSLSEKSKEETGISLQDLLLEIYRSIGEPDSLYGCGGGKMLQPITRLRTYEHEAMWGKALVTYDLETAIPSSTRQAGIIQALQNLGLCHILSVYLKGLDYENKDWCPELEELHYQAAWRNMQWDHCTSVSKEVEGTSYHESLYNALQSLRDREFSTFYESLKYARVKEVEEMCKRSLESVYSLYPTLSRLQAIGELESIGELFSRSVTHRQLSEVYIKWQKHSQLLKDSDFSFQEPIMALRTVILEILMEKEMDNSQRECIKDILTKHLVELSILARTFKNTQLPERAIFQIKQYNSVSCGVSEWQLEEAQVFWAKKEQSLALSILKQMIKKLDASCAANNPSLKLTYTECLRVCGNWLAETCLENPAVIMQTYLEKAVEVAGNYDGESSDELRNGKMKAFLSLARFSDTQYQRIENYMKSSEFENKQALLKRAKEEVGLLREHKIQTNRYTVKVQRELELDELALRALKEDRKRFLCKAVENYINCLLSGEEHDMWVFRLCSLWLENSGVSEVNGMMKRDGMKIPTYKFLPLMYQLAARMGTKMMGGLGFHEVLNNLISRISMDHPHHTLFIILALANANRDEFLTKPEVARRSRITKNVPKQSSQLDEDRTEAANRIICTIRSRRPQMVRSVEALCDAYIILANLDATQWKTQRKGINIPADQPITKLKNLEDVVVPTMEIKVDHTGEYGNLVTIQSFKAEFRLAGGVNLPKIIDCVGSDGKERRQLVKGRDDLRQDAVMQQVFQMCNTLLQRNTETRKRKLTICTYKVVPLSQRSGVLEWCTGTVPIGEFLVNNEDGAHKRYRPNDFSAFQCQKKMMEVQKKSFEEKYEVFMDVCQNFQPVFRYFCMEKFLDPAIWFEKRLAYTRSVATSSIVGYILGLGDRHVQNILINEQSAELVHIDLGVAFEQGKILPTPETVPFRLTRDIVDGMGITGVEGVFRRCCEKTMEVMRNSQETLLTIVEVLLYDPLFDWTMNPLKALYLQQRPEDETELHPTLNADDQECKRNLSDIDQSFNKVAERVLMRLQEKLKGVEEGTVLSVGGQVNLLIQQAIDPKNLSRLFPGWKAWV
Summary of the method: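 After paraformaldehyde fixation and Triton X-100 permeabilization, immunostained plates were read by infrared scanning (ODYSSEY CLx). Compound was given as 10 doses, 3-fold dilutions from a 1 μM final top concentration.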

[1] = pKAP1 in etoposide-treated MCF-7 cells
[2] = MCF-7 cells, etoposide 100 μM, 1 hr, pKAP1 readout

Row | IC50 (DNA-PK; 20 μM ATP) [nM] | IC50 (ATM; [1]) [nM] | IC50 (DNA-PK; ATP 20 μM) [nM] | IC50 (ATM; [2]) [nM] | SMILES
1 | 1 to 100 | 1 to 100 |  |  | CO[C@H]1C[C@]2(C1)C(=O)N(C)c1cnc3cc(F)c(-c4cnc(OCCNC(C)C)c(NS(=O)(=O)N(C)C)c4)cc3c12 [Example 389, cis-8′-{5-[(Dimethylsulfamoyl)amino]-6-{2-[(propan-2-yl)amino]ethoxy}pyridine-3-yl}-7′-fluoro-3-Methoxy-3′-methyl-2′,3′-dihydrospiro[cyclobutane-1,1′-pyrrolo[2,3-c]quinoline]-2′-one]
2 | 1 to 100 | 1 to 100 |  |  | COc1cc([C@H]2C[C@]3(C2)C(=O)N(C)c2cnc4cc(F)c(-c5cnc(OCCNC(C)C)c(NS(C)(=O)=O)c5)cc4c23)ccn1 [Example 432, cis-N-(5-(7′-Fluoro-3-(2-methoxypyridin-4-yl)-3′-methyl-2′-oxo-2′,3′-dihydrospiro[cyclobutane-1,1′-pyrrolo[2,3-c]quinolin]-8′-yl)-2-(2-(isopropylamino)ethoxy)pyridin-3-yl)methanesulfonamide]
3 | 1 to 100 | 1 to 100 |  |  | CC(C)NCCOc1ncc(-c2cc3c4c(cnc3cc2F)N(C)C(=O)C42CCC2)cc1NS(=O)(=O)N1CCC1 [Example 370, N-(5-(7′-Fluoro-3′-methyl-2′-oxo-2′,3′-dihydrospiro [cyclobutane-1,1′-pyrrolo[2,3-c]quinolin]-8′-yl)-2-(2-(isopropylamino)ethoxy)pyridin-3-yl)azetidine-1-sulfonamide]
4 | 1 to 100 | 0.5 to 1 |  |  | CN1C(=O)C2(CCC2)c2c1cnc1cc(F)c(-c3cnc(N4CCC(N5CCCCC5)CC4)c(NS(C)(=O)=O)c3)cc21 [Example 358, N-(2-([1,4-Bipiperidin]-1′-yl)-5-(7′-fluoro-3′-methyl-2′-oxo-2′,3′-dihydrospiro[cyclobutane-1,1′-pyrrolo[2,3-c]quinolin]-8′-yl)pyridin-3-yl)methanesulfonamide hydrochloride]
5 | 1 to 100 | 1 to 100 |  |  | CC(C)NCCOc1ncc(-c2cc3c4c(cnc3cc2F)N(C)C(=O)C42CCC2)cc1NS(=O)(=O)N1CCOCC1 [Example 373, N-(5-(7′-Fluoro-3′-methyl-2′-oxo-2′,3′-dihydrospiro [cyclobutane-1,1′-pyrrolo [2,3-c]quinolin]-8′-yl)-2-(2-(isopropylamino)ethoxy)pyridin-3-yl)morpholine-4-sulfonamide hydrochloride]
6 | 1 to 100 | 1 to 100 |  |  | CC(C)NCCOc1ncc(-c2cc3c(cc2F)ncc2c3[C@]3(C[C@H](C)C3)C(=O)N2C)cc1NS(C)(=O)=O [Example 448, cis-N-(5-(7′-Fluoro-3,3′-dimethyl-2′-oxo-2′,3′-dihydrospiro[cyclobutane-1,1′-pyrrolo[2,3-c]quinolin]-8′-yl)-2-(2-(isopropylamino)ethoxy)pyridin-3-yl)methanesulfonamide]
7 |  |  | < 0.5 | 1 to 100 | CCNCCOc1ncc(-c2ccc3ncc4c(c3c2)C2(CCC2)C(=O)N4C)cc1NS(C)(=O)=O [Example 248, N-(2-(2-(Ethylamino)ethoxy)-5-(3′-methyl-2′-oxo-2′,3′-dihydrospiro[cyclobutane-1,1′-pyrrolo[2,3-c]quinolin]-8′-yl)pyridin-3-yl) methanesulfonamide]
8 |  |  | 1 to 100 | 1 to 100 | CN1CCC(c2ncc(-c3ccc4ncc5c(c4c3)C3(CCC3)C(=O)N5C)cc2NS(C)(=O)=O)CC1 [Example 285, N-(5-(3′-Methyl-2′-oxo-2′,3′-dihydrospiro[cyclobutane-1,1′-pyrrolo[2,3-c]quinolin]-8′-yl)-2-(1-methylpiperidin-4-yl)pyridin-3-yl)methanesulfonamide]
9 | 1 to 100 | 1 to 100 |  |  | CO[C@H]1C[C@@]2(C1)C(=O)N(C)c1cnc3cc(F)c(-c4cnc(OCCNC(C)C)c(NS(=O)(=O)N(C)C)c4)cc3c12 [Example 390]
10 | 1 to 100 | 1 to 100 |  |  | CC(C)NCCOc1ncc(-c2cc3c(cc2F)ncc2c3[C@]3(C[C@H](c4cccnc4)C3)C(=O)N2C)cc1NS(C)(=O)=O [Example 436, cis-N-(5-(7′-Fluoro-3′-methyl-2′-oxo-3-(pyridin-3-yl)-2′,3′-dihydrospiro[cyclobutane-1,1′-pyrrolo[2,3-c]quinolin]-8′-yl)-2-(2-(isopropylamino)ethoxy)pyridin-3-yl)methanesulfonamide]
11 |  |  | 0.5 to 1 | 1 to 100 | CC(C)NCCOc1ncc(-c2ccc3ncc4c(c3c2)C2(CCC2)C(=O)N4C)cc1NS(C)(=O)=O [Example 281, N-(2-(2-(Isopropylamino)ethoxy)-5-(3′-methyl-2′-oxo-2′,3′-dihydrospiro [cyclobutane-1,1′-pyrrolo[2,3-c]quinolin]-8′-yl)pyridin-3-yl)methanesulfonamide]
12 | 1 to 100 | 1 to 100 |  |  | CC(C)NCCOc1ncc(-c2cc3c(cc2F)ncc2c3[C@]3(C[C@H](Cc4ccccc4)C3)C(=O)N2C)cc1NS(C)(=O)=O [Example 451, cis-N-(5-(3-Benzyl-7′-fluoro-3′-methyl-2′-oxo-2′,3′-dihydrospiro[cyclobutane-1,1′-pyrrolo[2,3-c]quinolin]-8′-yl)-2-(2-(isopropylamino)ethoxy)pyridin-3-yl)methanesulfonamide]

The remaining lines, values behind:

Row | SMILES | IC50 (DNA-PK; 20 μM ATP) [nM] | IC50 (ATM; [1]) [nM] | IC50 (DNA-PK; ATP 20 μM) [nM] | IC50 (ATM; [2]) [nM]
13 | COc1ncc(-c2ccc3ncc4c(c3c2)C2(CC2)C(=O)N4C)cc1NS(=O)(=O)c1ccccc1 [Example 14, N-(2-Methoxy-5-(3′-methyl-2′-oxo-2′,3′-dihydrospiro [cyclopropane-1,1′-pyrrolo[2,3-c]quinolin]-8′-yl)pyridin-3-yl)benzenesulfonamide] |  |  | < 0.5 | 1 to 100
14 | CN(C)CCCOc1ncc(-c2ccc3ncc4c(c3c2)C2(CC2)C(=O)N4C)cc1NS(=O)(=O)c1ccc(C(C)(C)C)cc1 [Example 127] |  |  | 1 to 100 | 1 to 100
15 | CN(C)CCCOc1ncc(-c2ccc3ncc4c(c3c2)C2(CC2)C(=O)N4C)cc1NS(=O)(=O)c1ccc(F)c(C#N)c1 [Example 111, 3-Cyano-N-(2-(3-(dimethylamino)propoxy)-5-(3′-methyl-2′-oxo-2′,3′-dihydrospiro [cyclopropane-1,1′-pyrrolo[2,3-c]quinolin]-8′-yl)pyridin-3-yl)-4-fluorobenzenesulfonamide] |  |  | < 0.5 | 1 to 100
16 | CN(C)CCCNc1ncc(-c2ccc3ncc4c(c3c2)C2(CC2)C(=O)N4C)cn1 [Example 70, 8′-(2-((3-(Dimethylamino)propyl)amino)pyrimidin-5-yl)-3′-methylspiro[cyclopropane-1,1′-pyrrolo[2,3-c]quinolin]-2′(3′-H)-one] |  |  | 1 to 100 | 1 to 100
17 | CCN(C)S(=O)(=O)Nc1cc(-c2ccc3ncc4c(c3c2)C2(CC2)C(=O)N4C)cnc1N1CCC(N2CCCCC2)CC1 [Example 214] |  |  | 0.5 to 1 | 0.5 to 1
18 | COc1cc2ncc3c(c2cc1-c1cnc(OCCCN(C)C)c(NS(=O)(=O)c2ccccc2)c1)C1(CC1)C(=O)N3C [Example 82, N-(2-(3-(Dimethylamino)propoxy)-5-(7-methoxy-3′-methyl-2′-oxo-2′,3′-dihydrospiro[cyclopropane-1,1′-pyrrolo[2,3-c]quinolin]-8′-yl)pyridin-3-yl) benzenesulfonamide] |  |  | 1 to 100 | 0.5 to 1
19 | CN(C)CCCOc1ncc(-c2ccc3ncc4c(c3c2)C2(CC2)C(=O)N4C)cc1OCc1ccccc1 [Example 59, 8′-(5-(Benzyloxy)-6-(3-(dimethylamino)propoxy)pyridin-3-yl)-3methylspiro [cycloproane-1,1′-pyrrolo [2,3-c]quinolin]-2′(3′-)-one] |  |  | 1 to 100 | 1 to 100
20 | CN1C(=O)C2(CCC2)c2c1cnc1ccc(-c3cnc(OCCCN4CCCCC4)c(NS(=O)(=O)c4cc(F)cc(Cl)c4)c3)cc21 [Example 196, 3-Chloro-5-fluoro-N-(5-(3′-methyl-2′-oxo-2′,3′-dihydrospiro[cyclobulane-1,1′-pyrrolo[2,3-c]quinolin]-8′-yl)-2-(3-(piperidin-1-yl)propoxy)pyridin-3-yl)benzenesulfonamide hydrochloride] |  |  | 1 to 100 | 1 to 100
21 | CN1CCN(c2ncc(-c3cc4c5c(cnc4cc3F)N(C)C(=O)C53CC3)cc2NS(=O)(=O)c2ccccc2)CC1 [Example 117, N-(5-(7′-Fluoro-3′-methyl-2′-oxo-2′,3′-dihydrospiro [cyclopropane-1,1′-pyrrolo[2,3-c]quinolin]-8′-yl)-2-(4-methylpiperazin-l-yl)Pyridin-3-yl)benzenesulfonamide hydrochloride] |  |  | 1 to 100 | 1 to 100
22 | CN(C)CCCOc1ncc(-c2ccc3ncc4c(c3c2)C2(CCC2)C(=O)N4C)cc1NS(=O)(=O)c1cnn(C)c1 [Example 166, N-(2-(3-(Dimethylamino)propoxy)-5-(3′-methyl-2′-oxo-2′,3′-dihydrospiro [cyclobutane-1,1′-pyrrolo [2,3-c]quinolin]-8′-yl)pyridin-3-yl)-1-methyl-1H-pyrazole-4-sulfonamide hydrochloride] |  |  | 1 to 100 | 1 to 100
23 | CN1C(=O)C2(CCC2)c2c1cnc1ccc(-c3cnc(OCCCN4CCCC4)c(NS(C)(=O)=O)c3)cc21 [Example 236, N-(5-(3′-Methyl-2′-oxo-2′,3′-dihydrospiro[cyclobutane-1,1′-pyrrolo[2,3-c]quinolin]-8′-yl)-2-(3-(pyrrolidin-1-yl)propoxy)pyridin-3-yl)methanesulfonamide] |  |  | 0.5 to 1 | 1 to 100
24 | CN(C)CCCOc1ncc(-c2ccc3ncc4c(c3c2)C2(CC2)C(=O)N4C)cc1NS(=O)(=O)c1cccc(C(F)(F)F)c1 [Example 106, N-(2-(3-(Dimethylamino)propoxy)-5-(3′-methyl-2′-oxo-2′,3′-dihydrospiro [cyclopropane-1,1′-pyrrolo[2,3-c]quinolin]-8′-yl)pyridin-3-yl)-3-(trifluoromethyl)benzenesulfonamide] |  |  | < 0.5 | 1 to 100
